Molecular target: T1, Grx (Lmo2344) (Listeria monocytogenes, UniProt Q8Y4T8)
T1 construct: CHYC active motif
T1 sequence (Q8Y4T8 1-88): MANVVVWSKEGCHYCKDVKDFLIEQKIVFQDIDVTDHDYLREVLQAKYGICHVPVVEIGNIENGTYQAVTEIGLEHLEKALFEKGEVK
Assay: insulin disulfide reduction, turbidity at […] nm
Format: biochemical
Settings: electron donor, 1 mM DTT; 0.15 mM human insulin, pH 7.0, 2 mM EDTA; DTT also reduces insulin non-enzymatically

In the case of OC(CS)C(O)CS (stereo not shown) [DTT], the “insulin disulfide reduction, turbidity at 650 nm” value is reported as “Using DTT as an electron donor, the recombinant Lmo2344 is able to catalyze the reduction”.

Source: publication PMC6844310, “Deletion of glutaredoxin promotes oxidative tolerance and intracellular infection in Listeria monocytogenes” (Virulence, 2019)
